Measurements as given in patent US20250145606A1 (Arcus Biosciences, Inc., priority 2023, published 2025).

Legend:
Settings in all cases: biochemical, HTRF KinEASE-TK
PDGFRβ = PDGFRβ (Homo sapiens (Human), UniProt P09619); assay: Inhibition of PDGFRβ kinase activity (HTRF KinEASE-TK)
Experimental: (§1) Inhibition of c-Kit, PDGFRα, PDGFRβ, CSFIR and FLT3 Kinase Activity
(§2) Compounds were evaluated to determine the potency with which they inhibit the kinase activity of the following panel of tyrosine kinases: c-Kit (SignalChem, Product #: K06-11BG), PDGFRα (SignalChem, Product #: P12-18G), PDGFRβ (SignalChem, Product #: P13-11G), CSFIR (SignalChem, Product #: C74-11G) and FLT3 (Invitrogen, Product #: PR4666C). Activity was determined as a function of phosphorylated biotinylated TK peptide generated by the transfer of phosphate from ATP as measured by the use of the HTRF KinEASE-TK assay kit (Cisbio, Product #: 62TKOPEJ). Levels of phosphorylated biotinylated TK peptide (Part 61TKOBLC of KinEASE assay kit) are quantified by its capture by phosphor-TK-Antibody-Cryptate (Part of KinEASE assay kit) and XL665-labeled Streptavidin (Part 610SAXLG of KinEASE assay kit) followed by measurement of Time-Resolved Fluorescence Resonance Energy Transfer (TR-FRET) signal. On the day of the assay, compounds were solubilized in DMSO and dispensed into a 384-well white Opti-plate (PerkinElmer, catalog #6007290) to generate a 22 point 1:2 titration. Enzyme solution was prepared for each of the tyrosine kinases in 50 mM HEPES, pH 7.4, 5 mM MgCl2 for c-Kit or 10 mM MgCl2 for FLT3, CSFIR, PDGFRa and PDGFRβ, 2 mM MnCl2, 0.01% Brij-35 and 0.01% BSA. Working enzyme concentrations were prepared for c-Kit at 2 nM (2×), PDGFRa and PDGFRß at 10 nM (2×), CSFIR at 2 nM (2×) and FLT3 at 0.4 nM (2×). Five microliters of enzyme dilution of each tyrosine kinase were added to their respective 384-well white Opti-plate pre-dispensed with compound and allowed to incubate for 1 h at rt. Utilizing the same enzyme buffer recipe, 2x substrate mixes were prepared for each enzyme as follows: For c-Kit, 1.6 μM (2×) TK substrate and 16 μM (2×) ATP (Promega, catalog #V915). For PDGFRα, 3.2 μM TK substrate and 1 μM ATP. For PDGFRβ, 3.2 μM TK substrate and 40 μM ATP. For CSFIR, […] TK substrate and 20 μM ATP. For FLT3, 3.2 μM TK substrate and 100 μM ATP. Reactions were initiated by addition of 5 μL of the respective 2x substrate mix to each well of the plates containing the respective tyrosine kinase enzymes and were allowed to proceed for 120 minutes at rt, except for FLT3, the reaction time is 45 min. Following the reaction, 10 μL of detection mix consisting of 0.2 μM (2×) of Streptavidin-XL665 and 2 μM (2×) of TK-Antibody-Cryptate prepared in detection buffer (Part 62SDBRDF of KinEASE assay kit) was added and then allowed to incubate for 60 min. The TR-FRET signal was quantified by measuring the ratio of emission at 665 nm to 620 nm after excitation at 320 nm by reading on a PerkinElmer Envision multimode reader. Compound potencies (IC50 values) were determined using a standard 4-parameter non-linear regression fit.

PDGFRα = PDGFRα (Homo sapiens (Human), UniProt P16234); assay: Inhibition of PDGFRα kinase activity (HTRF KinEASE-TK)
Experimental: as §1, §2

c-Kit = c-Kit (Homo sapiens (Human), UniProt P10721); assay: Inhibition of c-Kit kinase activity (HTRF KinEASE-TK); format: biochemical
Experimental: as §1, §2

CSF1R = CSF1R (Homo sapiens (Human), UniProt P07333); assay: Inhibition of CSF1R kinase activity (HTRF KinEASE-TK)
Experimental: as §1, §2

Chain of PDGFRβ (P09619 33-1106): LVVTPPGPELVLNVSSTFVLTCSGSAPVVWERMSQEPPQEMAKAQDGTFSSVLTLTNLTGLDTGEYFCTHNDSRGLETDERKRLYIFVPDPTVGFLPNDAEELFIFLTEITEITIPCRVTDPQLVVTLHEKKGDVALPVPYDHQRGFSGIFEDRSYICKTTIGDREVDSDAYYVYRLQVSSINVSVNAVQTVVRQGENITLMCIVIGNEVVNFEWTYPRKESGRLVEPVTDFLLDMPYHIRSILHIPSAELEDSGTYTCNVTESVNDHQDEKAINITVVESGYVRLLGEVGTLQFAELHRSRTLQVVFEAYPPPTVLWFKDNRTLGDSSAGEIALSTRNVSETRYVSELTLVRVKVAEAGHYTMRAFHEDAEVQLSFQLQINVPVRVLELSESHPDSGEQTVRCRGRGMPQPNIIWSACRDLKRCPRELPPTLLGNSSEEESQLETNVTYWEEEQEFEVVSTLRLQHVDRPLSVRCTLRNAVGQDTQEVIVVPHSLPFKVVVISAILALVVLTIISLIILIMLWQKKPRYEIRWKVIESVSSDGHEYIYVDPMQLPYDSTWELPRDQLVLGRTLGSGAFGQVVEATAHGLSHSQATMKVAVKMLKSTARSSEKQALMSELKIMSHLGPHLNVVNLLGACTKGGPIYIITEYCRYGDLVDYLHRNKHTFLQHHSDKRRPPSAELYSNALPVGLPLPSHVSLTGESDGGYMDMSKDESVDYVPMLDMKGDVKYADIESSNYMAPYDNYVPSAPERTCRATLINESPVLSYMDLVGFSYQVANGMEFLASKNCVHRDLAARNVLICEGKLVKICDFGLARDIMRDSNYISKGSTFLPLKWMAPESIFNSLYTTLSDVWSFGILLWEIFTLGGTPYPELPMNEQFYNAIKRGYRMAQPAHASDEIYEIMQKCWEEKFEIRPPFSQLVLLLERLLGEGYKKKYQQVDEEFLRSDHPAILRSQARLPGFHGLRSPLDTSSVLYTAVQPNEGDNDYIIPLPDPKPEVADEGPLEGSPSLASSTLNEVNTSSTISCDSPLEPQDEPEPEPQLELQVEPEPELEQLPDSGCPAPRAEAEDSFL
Chain of c-Kit (P10721 26-976): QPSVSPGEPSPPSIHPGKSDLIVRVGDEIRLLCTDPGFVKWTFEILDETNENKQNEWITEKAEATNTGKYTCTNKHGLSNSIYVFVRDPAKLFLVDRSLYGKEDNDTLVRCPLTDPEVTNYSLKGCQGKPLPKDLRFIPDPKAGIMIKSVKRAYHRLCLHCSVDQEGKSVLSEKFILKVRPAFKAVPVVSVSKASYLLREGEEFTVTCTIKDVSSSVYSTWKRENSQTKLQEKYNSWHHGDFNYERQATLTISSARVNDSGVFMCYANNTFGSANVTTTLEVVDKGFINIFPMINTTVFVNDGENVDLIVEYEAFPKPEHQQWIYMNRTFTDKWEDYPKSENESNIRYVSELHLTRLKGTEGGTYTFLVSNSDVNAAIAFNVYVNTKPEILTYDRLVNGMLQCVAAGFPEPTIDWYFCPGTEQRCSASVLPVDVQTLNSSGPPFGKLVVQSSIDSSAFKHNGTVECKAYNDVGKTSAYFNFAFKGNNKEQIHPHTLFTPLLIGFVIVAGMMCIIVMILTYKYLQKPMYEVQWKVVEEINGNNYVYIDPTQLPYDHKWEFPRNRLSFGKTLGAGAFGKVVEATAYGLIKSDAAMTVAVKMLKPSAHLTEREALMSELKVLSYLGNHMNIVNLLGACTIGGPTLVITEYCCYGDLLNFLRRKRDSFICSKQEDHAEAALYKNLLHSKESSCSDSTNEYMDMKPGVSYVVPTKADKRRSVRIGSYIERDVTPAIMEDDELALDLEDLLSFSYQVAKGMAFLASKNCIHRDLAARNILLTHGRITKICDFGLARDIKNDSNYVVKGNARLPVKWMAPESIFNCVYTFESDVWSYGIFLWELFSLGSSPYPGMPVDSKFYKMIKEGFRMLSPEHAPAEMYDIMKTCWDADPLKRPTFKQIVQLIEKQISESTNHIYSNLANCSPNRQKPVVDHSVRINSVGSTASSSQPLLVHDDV
Chain of CSF1R (P07333 20-972): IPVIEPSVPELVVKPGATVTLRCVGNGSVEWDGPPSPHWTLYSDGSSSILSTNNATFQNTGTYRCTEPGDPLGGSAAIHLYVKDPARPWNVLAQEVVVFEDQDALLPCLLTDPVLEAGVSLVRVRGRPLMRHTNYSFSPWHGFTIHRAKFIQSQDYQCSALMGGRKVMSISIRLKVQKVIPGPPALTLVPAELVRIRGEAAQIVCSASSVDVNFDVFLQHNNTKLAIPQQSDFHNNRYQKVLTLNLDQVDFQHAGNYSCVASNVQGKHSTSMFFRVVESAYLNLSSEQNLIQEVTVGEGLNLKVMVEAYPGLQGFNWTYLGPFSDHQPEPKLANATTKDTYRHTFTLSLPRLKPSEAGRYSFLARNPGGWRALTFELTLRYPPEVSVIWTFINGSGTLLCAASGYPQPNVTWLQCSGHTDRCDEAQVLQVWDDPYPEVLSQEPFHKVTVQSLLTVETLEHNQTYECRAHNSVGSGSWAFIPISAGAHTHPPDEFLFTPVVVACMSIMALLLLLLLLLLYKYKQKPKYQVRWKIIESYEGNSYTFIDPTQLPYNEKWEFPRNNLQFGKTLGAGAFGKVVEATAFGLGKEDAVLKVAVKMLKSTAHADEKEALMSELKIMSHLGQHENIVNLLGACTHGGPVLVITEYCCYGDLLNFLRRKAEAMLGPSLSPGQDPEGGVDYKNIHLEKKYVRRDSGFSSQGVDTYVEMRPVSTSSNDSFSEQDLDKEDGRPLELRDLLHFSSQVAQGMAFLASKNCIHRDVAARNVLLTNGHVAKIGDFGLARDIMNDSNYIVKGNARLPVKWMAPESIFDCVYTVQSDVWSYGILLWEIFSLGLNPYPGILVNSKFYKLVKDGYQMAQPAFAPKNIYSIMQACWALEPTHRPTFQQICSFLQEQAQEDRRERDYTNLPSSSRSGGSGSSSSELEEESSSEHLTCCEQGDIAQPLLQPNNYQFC
Chain of PDGFRα (P16234 24-1089): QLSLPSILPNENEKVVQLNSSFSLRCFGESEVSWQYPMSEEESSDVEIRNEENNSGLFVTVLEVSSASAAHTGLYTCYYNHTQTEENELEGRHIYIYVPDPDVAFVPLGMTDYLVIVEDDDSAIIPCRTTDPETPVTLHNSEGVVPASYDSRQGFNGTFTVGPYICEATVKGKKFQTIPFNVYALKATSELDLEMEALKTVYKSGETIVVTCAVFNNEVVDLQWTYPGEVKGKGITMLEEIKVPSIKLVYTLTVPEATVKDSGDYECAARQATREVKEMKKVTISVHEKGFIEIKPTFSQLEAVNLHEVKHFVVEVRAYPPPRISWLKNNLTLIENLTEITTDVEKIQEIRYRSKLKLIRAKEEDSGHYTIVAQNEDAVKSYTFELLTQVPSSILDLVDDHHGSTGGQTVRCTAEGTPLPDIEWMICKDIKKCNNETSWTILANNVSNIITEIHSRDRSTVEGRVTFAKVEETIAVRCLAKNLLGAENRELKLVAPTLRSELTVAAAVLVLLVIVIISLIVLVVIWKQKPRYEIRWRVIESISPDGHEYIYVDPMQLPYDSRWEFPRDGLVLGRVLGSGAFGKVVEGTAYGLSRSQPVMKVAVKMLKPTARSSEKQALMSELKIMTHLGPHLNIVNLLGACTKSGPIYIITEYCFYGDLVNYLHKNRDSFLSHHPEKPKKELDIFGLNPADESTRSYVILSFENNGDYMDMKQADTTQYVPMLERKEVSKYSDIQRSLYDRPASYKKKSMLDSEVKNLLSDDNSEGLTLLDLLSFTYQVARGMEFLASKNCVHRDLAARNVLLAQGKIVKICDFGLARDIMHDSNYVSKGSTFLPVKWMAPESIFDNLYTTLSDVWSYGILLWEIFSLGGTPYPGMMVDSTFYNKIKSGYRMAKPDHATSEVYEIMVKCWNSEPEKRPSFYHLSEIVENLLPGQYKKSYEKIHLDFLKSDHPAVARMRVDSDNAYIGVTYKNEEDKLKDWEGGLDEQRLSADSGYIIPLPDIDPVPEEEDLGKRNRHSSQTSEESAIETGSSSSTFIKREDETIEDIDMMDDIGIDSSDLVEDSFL

SMILES | IC50 (PDGFRβ) [nM] | IC50 (PDGFRα) [nM] | IC50 (c-Kit) [nM] | IC50 (CSF1R) [nM]
Cc1ncc(C(=O)Nc2cc(C(=O)Nc3ccc(OC4CC4)c(C)n3)c(F)cc2C)s1 [Example 62, N-[5-[(5-Cyclopropyloxy-6-methylpyridin-2-yl)carbamoyl]-4-fluoro-2-methylphenyl]-2-methyl-1,3-thiazole-5-carboxamide] | > 1000 | > 1000 | < 100 | > 1000
Cc1cc(F)c(C(=O)NCCc2ccc(F)cc2)cc1NC(=O)c1cnc(N)s1 [Example 165] | < 100 | 100 to 1000 | < 100 | 100 to 1000
Cc1cc(F)c(C(=O)Nc2ccn(C(C)(C)C)n2)cc1NC(=O)c1cnc(N)s1 [Example 141, 2-Amino-N-[5-[(1-tert-butylpyrazol-3-yl)carbamoyl]-4-fluoro-2-methylphenyl]-1,3-thiazole-5-carboxamide] | < 100 | < 100 | < 100 | 100 to 1000
Cc1cc(F)c(C(=O)Nc2nc(C3CC3)cs2)cc1NC(=O)c1cnc(N)s1 [Example 170, 2-Amino-N-[5-[(4-cyclopropyl-1,3-thiazol-2-yl)carbamoyl]-4-fluoro-2-methylphenyl]-1,3-thiazole-5-carboxamide] | 100 to 1000 | > 1000 | < 100 | 100 to 1000
Cc1cc(F)c(C(=O)Nc2cc(C(F)(F)F)ccn2)cc1NC(=O)c1cnc(N)s1 [Example 178, 2-Amino-N-[4-fluoro-2-methyl-5-[[4-(trifluoromethyl)pyridin-2-yl]carbamoyl]phenyl]-1,3-thiazole-5-carboxamide] | < 100 | < 100 | < 100 | < 100
Cc1cc(F)c(C(=O)Nc2ncn(C)n2)cc1NC(=O)c1cnc(N)s1 [Example 174, 2-Amino-N-[4-fluoro-2-methyl-5-[(1-methyl-1,2,4-triazol-3-yl)carbamoyl]phenyl]-1,3-thiazole-5-carboxamide] | > 1000 | > 1000 | 100 to 1000 | > 1000
Cc1cc(F)c(C(=O)Nc2ccc(OC3CC3)cn2)cc1NC(=O)c1cnc(C(F)F)s1 [Example 59, N-[5-[(5-Cyclopropyloxypyridin-2-yl)carbamoyl]-4-fluoro-2-methylphenyl]-2-(difluoromethyl)-1,3-thiazole-5-carboxamide] | > 1000 | > 1000 | < 100 | > 1000
Cc1cc(F)c(C(=O)Nc2ccc3c(c2)C(F)(F)C(=O)N3)cc1NC(=O)c1cnc(N)s1 [Example 188, 2-Amino-N-[5-[(3,3-difluoro-2-oxo-1H-indol-5-yl)carbamoyl]-4-fluoro-2-methylphenyl]-1,3-thiazole-5-carboxamide] | < 100 | < 100 | < 100 | < 100
COCc1ccc(NC(=O)c2cc(NC(=O)c3cnc(C)s3)c(Cl)cc2F)nc1 [Example 47, N-[2-chloro-4-fluoro-5-[[5-(methoxymethyl)pyridin-2-yl]carbamoyl]phenyl]-2-methyl-1,3-thiazole-5-carboxamide] | > 1000 | > 1000 | 100 to 1000 | > 1000
Cc1cc(F)c(C(=O)Nc2ccc3c(c2)C(C)(C)C(=O)N3)cc1NC(=O)c1cnc(N)s1 [Example 184, 2-Amino-N-[5-[(3,3-dimethyl-2-oxo-1H-indol-5-yl)carbamoyl]-4-fluoro-2-methylphenyl]-1,3-thiazole-5-carboxamide] | < 100 | < 100 | < 100 | 100 to 1000
Cc1ncc(C(=O)Nc2cc(C(=O)Nc3cnc(C4CC4)nc3)c(F)cc2C)s1 [Example 42, N-[5-[(2-cyclopropylpyrimidin-5-yl)carbamoyl]-4-fluoro-2-methylphenyl]-2-methyl-1,3-thiazole-5-carboxamide] | > 1000 | > 1000 | < 100 | > 1000
Nc1ncc(C(=O)Nc2cc(C(=O)NC3CC3)c(F)cc2Cl)s1 [Example 200, 2-Amino-N-[2-chloro-5-(cyclopropylcarbamoyl)-4-fluorophenyl]-1,3-thiazole-5-carboxamide] | > 1000 | 100 to 1000 | < 100 | > 1000
Cc1cc(F)c(C(=O)Nc2ccc(OC3CC3)cc2F)cc1NC(=O)c1cnc(N)s1 [Example 128] | < 100 | 100 to 1000 | < 100 | 100 to 1000

The next lines start with the values.

IC50 (PDGFRβ) [nM] | IC50 (PDGFRα) [nM] | IC50 (c-Kit) [nM] | IC50 (CSF1R) [nM] | SMILES
< 100 | < 100 | < 100 | < 100 | Cc1cc(F)c(C(=O)Nc2cc(C3CC3)ccn2)cc1NC(=O)c1cnc(N)s1 [Example 190, 2-Amino-N-[5-[(4-cyclopropylpyridin-2-yl)carbamoyl]-4-fluoro-2-methylphenyl]-1,3-thiazole-5-carboxamide]
< 100 | 100 to 1000 | < 100 | 100 to 1000 | Cc1cc(F)c(C(=O)Nc2ccc(C(F)C(F)(F)F)cn2)cc1NC(=O)c1cnc(N)s1 (stereo not drawn) [Example 225, 2-Amino-N-[4-fluoro-2-methyl-5-[[5-(1,2,2,2-tetrafluoroethyl)pyridin-2-yl]carbamoyl]phenyl]-1,3-thiazole-5-carboxamide]
< 100 | < 100 | < 100 | < 100 | Cc1cc(F)c(C(=O)Nc2ccc(C(C)(O)C(F)(F)F)cn2)cc1NC(=O)c1cnc(N)s1 (stereo not drawn) [Example 111, 2-Amino-N-[4-fluoro-2-methyl-5-[[5-(1,1,1-trifluoro-2-hydroxypropan-2-yl)pyridin-2-yl]carbamoyl]phenyl]-1,3-thiazole-5-carboxamide]
< 100 | 100 to 1000 | < 100 | 100 to 1000 | Cc1cc(F)c(C(=O)Nc2ccc(C(C)(C)O)cn2)cc1NC(=O)c1cnc(N)s1 [Example 113, 2-Amino-N-[4-fluoro-5-[[5-(2-hydroxypropan-2-yl)pyridin-2-yl]carbamoyl]-2-methylphenyl]-1,3-thiazole-5-carboxamide]
> 1000 | > 1000 | < 100 | > 1000 | COCCOc1ccc(NC(=O)c2cc(NC(=O)c3cnc(N)s3)c(C)cc2F)nc1 [Example 252, 2-Amino-N-[4-fluoro-5-[[5-(2-methoxyethoxy)pyridin-2-yl]carbamoyl]-2-methylphenyl]-1,3-thiazole-5-carboxamide]
> 1000 | > 1000 | 100 to 1000 | > 1000 | Cc1ncc(C(=O)Nc2cc(C(=O)NCCCN3CCOCC3)c(F)cc2C)s1 [Example 57, N-[4-Fluoro-2-methyl-5-(3-morpholin-4-ylpropylcarbamoyl)phenyl]-2-methyl-1,3-thiazole-5-carboxamide]
> 1000 | > 1000 | < 100 | > 1000 | Cc1cc(F)c(C(=O)Nc2ccc(CN3CCOCC3)cn2)cc1NC(=O)c1cnc(N)s1 [Example 248, 2-Amino-N-[4-fluoro-2-methyl-5-[[5-(morpholin-4-ylmethyl)pyridin-2-yl]carbamoyl]phenyl]-1,3-thiazole-5-carboxamide]
> 1000 | > 1000 | < 100 | > 1000 | Cc1ncc(C(=O)Nc2cc(C(=O)Nc3ccc(C(F)F)cn3)c(F)cc2C)s1 [Example 16, N-[5-[[5-(Difluoromethyl)pyridin-2-yl]carbamoyl]-4-fluoro-2-methylphenyl]-2-methyl-1,3-thiazole-5-carboxamide]
